Data set [1] can be described thus: MTT cell viability assay. It counts as cell-based. The note with it: human, 72 h exposure, ± SD, read-out: In vitro cytotoxicity IC50. As to the method: (§1) To evaluate the biocompatibility of the hybrid compounds, their in vitro antiproliferative activity was assessed in a panel of human malignant cell lines of different origin (K-562 and LAMA-84 suspension-growing myeloid leukemia cells, positive for the Philadelphia chromosome, and the urothelial bladder carcinoma cell line T-24 of adherent type). Non-malignant murine fibroblast cells (CCL-1) were also used as a screening platform. All cell lines were purchased from the German Collection of Microorganisms and Cell Cultures (DSMZ GmbH, Braunschweig, Germany). Cell cultures were cultivated in a growth medium RPMI 1640 supplemented with 10% fetal bovine serum (FBS), and 5% L-glutamine and were incubated under standard conditions of 37 °C and 5% humidified CO2 atmosphere. The effects of the newly synthesized anthranilic derivatives on cell viability were measured using a validated colorimetric assay for evaluating cell viability, known as the Mosmann MTT method. Exponential-phased cells were harvested and seeded (100 μL/well) in 96-well plates at the appropriate density (3 × 10^5 for the suspension cultures LAMA-84 and K-562 and 1.5 × 10^5 for the adherent T-24 and CCL-1 cells). Following a 24 h incubation, cells were treated with various concentrations of the experimental compounds in the concentration range of 200–12.5 μM. After an exposure time of 72 h, filter-sterilized MTT substrate solution (5 mg/mL in PBS) was added to each well of the culture plate. A further 2–4 h incubation allowed for the formation of purple insoluble formazan crystals. The latter was dissolved in isopropyl alcohol solution containing 5% formic acid prior to absorbance measurement at 550 nm. Collected absorbance values were blanked against MTT and isopropanol solution and normalized to the mean value of untreated control (100% cell viability).

Data set [2] has as its system Enterococcus faecalis ATCC 29212. Description: Antimicrobial activity, agar well diffusion. Particulars: Dose 0.6 mg/disk, dwell = 6 mm. It is filed as cell-based.
Data set [3] deals with Klebsiella pneumoniae ATCC 13883. Description: Antimicrobial activity, agar well diffusion. It is filed as cell-based. Particulars: Dose 0.6 mg/disk, dwell = 6 mm. (A growth-free zone around the sample is the usual read-out of agar diffusion tests.)
Data set [4] in a line: MTT cell viability assay. It counts as cell-based, murine. Particulars: mouse, CCL-1 normal fibroblast cells (adherent); CCL-1, MTT, 72 h exposure, ± SD; read-out: In vitro cytotoxicity IC50. The procedure: as §1
For a further data set, the system named is Aspergillus flavus. Nature of the data set: Antimicrobial activity, agar well diffusion. It counts as cell-based. Particulars: Dose 0.6 mg/disk, dwell = 6 mm. An excerpt:
(§2) Twenty tested microorganisms including six Gram-positive bacteria (Bacillus subtilis ATCC 6633, Bacillus amyloliquefaciens 4BCL-YT, Staphylococcus aureus ATCC 25923, Listeria monocytogenes NBIMCC 8632, Enterococcus faecalis ATCC 19433), six Gram-negative bacteria (Salmonella enteritidis ATCC 13076, Klebsiella sp.—clinical isolate, Escherichia coli ATCC 25922, Proteus vulgaris ATCC 6380, Pseudomonas aeruginosa ATCC 9027), two yeasts (Candida albicans NBIMCC 74, Saccharomyces cerevisiae ATCC 9763), and six fungi (Aspergillus niger ATCC 1015, Aspergillus flavus, Penicillium sp., Rhizopus sp., Mucor sp.—plant isolates, Fusarium moniliforme ATCC 38932) from the collection of the Department of Microbiology at the University of Food Technologies—Plovdiv, Bulgaria, were selected for the antimicrobial activity test. The antimicrobial activity of the samples was determined by the agar well diffusion method. The tested bacteria B. subtilis and B. amyloliquefaciens were cultured on LBG agar at 30 °C. The test bacteria S. aureus, L. monocytogenes, E. faecalis, S. enteritidis, Klebsiella sp., E. coli, P. vulgaris, and P. aeruginosa were cultured on LBG agar at 37 °C for 24 h. The yeast C. albicans was cultured on MEA at 37 °C, while S. cerevisiae was cultured on MEA at 30 °C for 24 h. The fungi A. niger, A. flavus, Penicillium sp., Rhizopus sp., Mucor sp., and F. moniliforme were grown on MEA at 30 °C for 7 days or until sporulation. The inocula of the tested bacteria/yeasts was prepared by homogenization of a small amount of biomass in 5 mL of sterile 0.5% NaCl. The inocula of tested fungi were prepared by the addition of 5 mL of sterile 0.5% NaCl into the tubes. After stirring by vortex V-1 plus (Biosan), they were filtered and replaced in other tubes before use. The number of viable cells and fungal spores was determined using a bacterial counting chamber Thoma (Poly-Optik, GmbH, Bad Blankenburg, Germany). Their final concentrations were adjusted to 10^8 cfu/mL for bacterial/yeast cells and 10^5 cfu/mL for fungal spores and then inoculated in preliminarily melted and tempered at 45–48 °C LBG/MEA agar media. Next, the inoculated media were transferred in a quantity of 18 mL in sterile Petri plates (d = 90 mm) (Gosselin™, Hazebrouck, France) and allowed to harden. Then, six wells (d = 6 mm) per plate were cut, and triplicates of 60 μL of each extract were pipetted into the agar wells. The Petri plates were incubated in identical conditions. The antimicrobial activity was determined by measuring the diameter of the inhibition zones around the wells on the 24th and 48th h of incubation. Tested microorganisms with inhibition zones of 18 mm or more were considered sensitive; moderately sensitive were those in which the zones were from 12 to 18 mm; resistant were those in which the inhibition zones were up to 12 mm or completely missing.

Data set [5] has as its system Salmonella enteritidis ATCC 13076. Nature of the data set: Antimicrobial activity, agar well diffusion. It is filed as cell-based. Particulars: Dose 0.6 mg/disk, dwell = 6 mm.
From the text: as §2

Data set [6] concerns Micrococcus luteus 2YC-YT. Nature of the data set: Antimicrobial activity, agar well diffusion. It counts as cell-based. The note with it: Dose 0.6 mg/disk, dwell = 6 mm.
From the text: as §2

For data set [7], the system named is Saccharomyces cerevisiae ATCC 9763. Description: Antimicrobial activity, agar well diffusion. The note with it: Dose 0.6 mg/disk, dwell = 6 mm. It counts as cell-based.
From the text: as §2

For data set [8], the system named is Listeria monocytogenes NBIMCC 8632. Nature of the data set: Antimicrobial activity, agar well diffusion. It counts as cell-based. Particulars: Dose 0.6 mg/disk, dwell = 6 mm.
From the text: as §2

For data set [9], the system named is Escherichia coli ATCC 25922. Nature of the data set: Antimicrobial activity, agar well diffusion. It counts as cell-based. Particulars: Dose 0.6 mg/disk, dwell = 6 mm.
From the text: as §2

Data set [10] deals with Fusarium moniliforme ATCC 38932. Description: Antimicrobial activity, agar well diffusion. It is filed as cell-based. The note with it: Dose 0.6 mg/disk, dwell = 6 mm.
From the text: as §2

In data set [11] the test system is Salmonella typhimurium NBIMCC 1672. Description: Antimicrobial activity, agar well diffusion. Particulars: Dose 0.6 mg/disk, dwell = 6 mm. It is filed as cell-based.
From the text: as §2

For the next data set, the system named is Rhizopus sp. Description: Antimicrobial activity, agar well diffusion. It is filed as cell-based. The note with it: Dose 0.6 mg/disk, dwell = 6 mm.
From the text: as §2

Data set [12] deals with Bacillus subtilis ATCC 6633. Nature of the data set: Antimicrobial activity, agar well diffusion. It is filed as cell-based. The note with it: Dose 0.6 mg/disk, dwell = 6 mm.
From the text: as §2

Data set [13] has as its system Pseudomonas aeruginosa ATCC 9027. Nature of the data set: Antimicrobial activity, agar well diffusion. It counts as cell-based. Particulars: Dose 0.6 mg/disk, dwell = 6 mm.
From the text: as §2

For data set [14], the system named is Aspergillus niger ATCC 1015. Nature of the data set: Antimicrobial activity, agar well diffusion. The note with it: Dose 0.6 mg/disk, dwell = 6 mm. It is filed as cell-based.
From the text: as §2

Data set [15] concerns Proteus vulgaris ATCC 6380. Description: Antimicrobial activity, agar well diffusion. The note with it: Dose 0.6 mg/disk, dwell = 6 mm. It is filed as cell-based.
From the text: as §2

In another data set the test system is Penicillium chrysogenum. Description: Antimicrobial activity, agar well diffusion. It counts as cell-based. The note with it: Dose 0.6 mg/disk, dwell = 6 mm.
From the text: as §2

The test system of data set [16] is Bacillus amyloliquefaciens 4BCL-YT. Nature of the data set: Antimicrobial activity, agar well diffusion. It is filed as cell-based. The note with it: Dose 0.6 mg/disk, dwell = 6 mm.
From the text: as §2

In a further data set the target is T1, human albumin (Homo sapiens, UniProt P02768).
T1 construct: purchased Octapharma (IP) SPRL Albunorm 20
Description: Inhibition of albumin denaturation (anti-inflammatory activity). It is filed as biochemical. Particulars: heat-induced denaturation. The procedure:
Anti-denaturation assay was conducted as described by Kumari et al. with slight modifications. The reaction mixture consisted of 0.5 mL of 5% aqueous solution of human albumin (Albunorm 20, Octapharma (IP) SPRL, 1070 Anderlecht, Belgium) and 0.2 mL of the tested compound, dissolved in DMSO, at different concentrations (20–500 μg/mL). The samples were incubated at 37 °C for 15 min. After that, 2.5 mL phosphate-buffered saline (pH 6.3) was added to each tube and the samples were heated for 30 min to 80 °C and then cooled for 5 min. Turbidity was measured spectrophotometrically at 660 nm (Cary 60 UV-Vis, Agilent Technologies, Santa Clara, CA, USA). For the blank sample, a mixture of 2.5 mL buffer and 0.2 mL DMSO was used instead of the compounds, while the product control test lacked the compounds’ concentration having 0.5 mL serum albumin, and 2.5 mL buffer only. The percentage inhibition of protein denaturation was calculated as follows:Percentage of inhibition denaturation = (Absorbancecontrol − Absorbancesample) / Absorbancecontrol × 100
The control represents 100% protein denaturation.
Commercially available over-the-counter non-steroidal anti-inflammatory drugs diclofenac sodium and acetylsalicylic acid were used for comparison. Their anti-inflammatory effect was determined as a percentage of inhibition of albumin denaturation following the same protocol as for the novel compounds.

In data set [17] the test system is Gram-positive bacteria, Gram-negative bacteria, yeasts and fungi. More on the design: method as in PMID 36831141. Particulars: same concentration range; cited from earlier work.
For data set [18], the system named is K-562, LAMA-84, T-24, CCL-1 cell lines. Details: method as in PMID 36831141. Particulars: reference spasmolytic drug; cited from earlier work.
[19] abbreviates: K-562 myeloid leukemia cells (suspension), K-562, MTT.
[20] abbreviates: LAMA-84 myeloid leukemia cells (suspension), LAMA-84, MTT.
The mark [21] stands for this setting: T-24 urothelial bladder carcinoma cells (adherent), T-24, MTT.

Like-named read-outs stand apart in the source and are kept apart here.

T1 sequence (P02768 25-609): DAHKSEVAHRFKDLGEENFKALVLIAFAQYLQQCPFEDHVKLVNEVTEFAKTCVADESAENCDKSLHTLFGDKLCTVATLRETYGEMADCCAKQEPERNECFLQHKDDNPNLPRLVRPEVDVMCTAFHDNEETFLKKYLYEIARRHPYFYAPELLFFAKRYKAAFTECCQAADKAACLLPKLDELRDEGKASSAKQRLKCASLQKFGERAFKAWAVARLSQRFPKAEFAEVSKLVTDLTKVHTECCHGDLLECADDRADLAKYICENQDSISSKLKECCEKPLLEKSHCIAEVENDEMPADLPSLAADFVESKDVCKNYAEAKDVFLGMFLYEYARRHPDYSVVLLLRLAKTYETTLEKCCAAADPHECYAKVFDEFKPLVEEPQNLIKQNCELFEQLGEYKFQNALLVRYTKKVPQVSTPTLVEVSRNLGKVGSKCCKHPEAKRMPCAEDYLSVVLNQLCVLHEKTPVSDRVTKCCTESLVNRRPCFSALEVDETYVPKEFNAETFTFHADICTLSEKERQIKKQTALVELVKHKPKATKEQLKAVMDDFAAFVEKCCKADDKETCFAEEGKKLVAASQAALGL

One may read the IC50 as the point on the concentration scale where inhibition reaches its midpoint. Consider `O=C(Nc1ccccc1C(=O)NCCc1cccc(Cl)c1)c1ccccc1Cl` [Compound 4d, 2-chloro-N-(2-((3-chlorophenethyl)carbamoyl)phenyl)benzamide], for which the concentration for half-maximal inhibition (IC50) at 72 h was 99.2 ± 8.8 µM in “MTT cell viability assay [1]” (setting [19]), 183 ± 13.3 µM in the data set “MTT cell viability assay [1]” (setting [20]), above 200 µM in the data set “MTT cell viability assay [1]” (setting [21]) and above 200 µM in the data set “MTT cell viability assay [4]”. Further, the “Inhibition Zones” value in [2] is reported as 8 mm; in [3] it was 8 mm; in the data set with Aspergillus flavus, 11 mm; in data set [5], 10 mm; in data set [6], 12 mm; in data set [7], 8 mm. Moreover, the “Inhibition Zones” value in [8] came to 11 mm; in data set [9], 12 mm; in data set [10], 8 mm; in [11], 12 mm; in the data set with Rhizopus sp., 9 mm; in data set [12], 11 mm. For the same molecule, the “Inhibition Zones” value in [13] was 10 mm; in [14], 10 mm; in data set [15], 8 mm; in the data set on Penicillium chrysogenum, 15 mm; in data set [16], 10 mm. At human albumin, this molecule had a half-inhibitory concentration (IC50) of 1670 µM.

For `O=C(Cc1ccccc1)Nc1ccccc1C(=O)NCCc1cccc(Cl)c1` [Compound 4c, N-(3-chlorophenethyl)-2-(2-phenylacetamido)benzamide], the IC50 at 72 h was 27.4 ± 2.4 µM in “MTT cell viability assay [1]” (setting [19]), 31.6 ± 1.1 µM in “MTT cell viability assay [1]” (setting [20]), above 200 µM in the data set “MTT cell viability assay [1]” (setting [21]) and 69.5 ± 6.1 µM in “MTT cell viability assay [4]”. In addition, the “Inhibition Zones” value with Aspergillus flavus was determined as 8 mm; in [5], 8 mm; in data set [6] it was 12 mm; in [9] it was 10 mm; in the data set with Rhizopus sp., 8 mm; in data set [12], 9 mm. The “Inhibition Zones” value was found to be 10 mm in data set [13], 10 mm in [14] and 8 mm in the data set with Penicillium chrysogenum. This molecule had an IC50 against human albumin of 1710 µM.

Turning to `O=C(NCCc1cccc(Cl)c1)c1ccccc1NC(=O)C(Cl)c1ccccc1` (centres unmarked) [Compound 4e, 2-(2-chloro-2-phenylacetamido)-N-(3-chlorophenethyl)benzamide], the IC50 at 72 h in the data set “MTT cell viability assay [1]” (setting [19]) turned out to be 102 ± 7.9 µM; in the data set “MTT cell viability assay [1]” (setting [20]) it was 193 ± 14.7 µM; in “MTT cell viability assay [1]” (setting [21]), 120 ± 9.9 µM; in “MTT cell viability assay [4]” it was 69.1 ± 4.6 µM. Besides, the “Inhibition Zones” value is recorded as 16 mm in data set [3]; 8 mm in the data set with Aspergillus flavus; 11 mm in data set [5]; 9 mm in [6]; 8 mm in data set [7]; 9 mm in data set [8]. The “Inhibition Zones” value in data set [9] was found to be 10 mm; in [10] it was 8 mm; in the data set with Rhizopus sp., 9 mm; in data set [12] it was 10 mm; in [13], 10 mm; in data set [14], 10 mm. For the same molecule, the “Inhibition Zones” value (in data set [15]; in the data set with Penicillium chrysogenum) was 8 mm in each case.

Turning to `CCN(CCCCOC(=O)c1ccc(OC)c(OC)c1)C(C)Cc1ccc(OC)cc1` (centres unmarked) [mebeverine], the “antimicrobial activity (overall, in words)” value in data set [17] is “did not show any antimicrobial activity”. The half-inhibitory concentrations result in data set [18] is reported as “under the hundred-micromolar range”.

Source of the values: PMC10530836, “Synthesis, Molecular Docking, and Biological Evaluation of Novel Anthranilic Acid Hybrid and Its Diamides as Antispasmodics” (International Journal of Molecular Sciences, 2023).
